Experiments:
human αVβ6 = molecular target: T1, human αVβ6 (Homo sapiens, UniProt P06756+P18564); assay: human αVβ6 HTRF binding assay
T1 construct: purchased R & D systems 3817-AV
Method in brief: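 HTRF binding format with biotinylated integrin, FITC-fibronectin and streptavidin-terbium, run in 20 mM Tris pH 7.4, 1 mM MgCl2, 1 mM MnCl2, 0.01% Tween 20, 0.01% BSA. A SPA-based binding assay was an alternative.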

human αVβ8 = human αVβ8 (Homo sapiens, UniProt P06756+P26012); assay: human αVβ8 HTRF binding assay
Experimental: (§1) All binding assays used the HTRF (homogeneous time resolved fluorescence) technology from Cisbio International, therefore all assays are described as HTRF binding assays. The assay results for the Examples are listed above together with the characterization data. The HTRF binding assays are established for the following integrins: human αVβ6, human αVβ1, human αVβ3, human αVβ5, and human αVβ8. All assays used the following assay buffer: 20 mM Tris, pH 7.4, 1 mM MgCl2, 1 mM MnCl2, 0.01% Tween 20, and 0.01% BSA. Alternatively, a SPA-based assay was used for evaluation of receptor binding. […]

human αVβ3 = human αVβ3 (Homo sapiens, UniProt P05106+P06756); assay: human αVβ3 HTRF binding assay; settings: read-out: Human αVβ3 IC50
Experimental: (§2) All binding assays used the HTRF (homogeneous time resolved fluorescence) technology from Cisbio International, therefore all assays are described as HTRF binding assays. The assay results for the Examples are listed above together with the characterization data. The HTRF binding assays are established for the following integrins: human αVβ6, human αVβ1, human αVβ3, human αVβ5, and human αVβ8. All assays used the following assay buffer: 20 mM Tris, pH 7.4, 1 mM MgCl2, 1 mM MnCl2, 0.01% Tween 20, and 0.01% BSA. Alternatively, a SPA-based assay was used for evaluation of receptor binding.
(§3) […]

human αVβ5 = human αVβ5 (Homo sapiens, UniProt P06756+P18084); assay: human αVβ5 HTRF binding assay
Experimental: as §1

human αVβ1 = human αVβ1 (Homo sapiens, UniProt P05556+P06756); assay: human αVβ1 HTRF binding assay
Experimental: as §2, §3

human αVβ1, sequence (P06756 31-992 limits assumed): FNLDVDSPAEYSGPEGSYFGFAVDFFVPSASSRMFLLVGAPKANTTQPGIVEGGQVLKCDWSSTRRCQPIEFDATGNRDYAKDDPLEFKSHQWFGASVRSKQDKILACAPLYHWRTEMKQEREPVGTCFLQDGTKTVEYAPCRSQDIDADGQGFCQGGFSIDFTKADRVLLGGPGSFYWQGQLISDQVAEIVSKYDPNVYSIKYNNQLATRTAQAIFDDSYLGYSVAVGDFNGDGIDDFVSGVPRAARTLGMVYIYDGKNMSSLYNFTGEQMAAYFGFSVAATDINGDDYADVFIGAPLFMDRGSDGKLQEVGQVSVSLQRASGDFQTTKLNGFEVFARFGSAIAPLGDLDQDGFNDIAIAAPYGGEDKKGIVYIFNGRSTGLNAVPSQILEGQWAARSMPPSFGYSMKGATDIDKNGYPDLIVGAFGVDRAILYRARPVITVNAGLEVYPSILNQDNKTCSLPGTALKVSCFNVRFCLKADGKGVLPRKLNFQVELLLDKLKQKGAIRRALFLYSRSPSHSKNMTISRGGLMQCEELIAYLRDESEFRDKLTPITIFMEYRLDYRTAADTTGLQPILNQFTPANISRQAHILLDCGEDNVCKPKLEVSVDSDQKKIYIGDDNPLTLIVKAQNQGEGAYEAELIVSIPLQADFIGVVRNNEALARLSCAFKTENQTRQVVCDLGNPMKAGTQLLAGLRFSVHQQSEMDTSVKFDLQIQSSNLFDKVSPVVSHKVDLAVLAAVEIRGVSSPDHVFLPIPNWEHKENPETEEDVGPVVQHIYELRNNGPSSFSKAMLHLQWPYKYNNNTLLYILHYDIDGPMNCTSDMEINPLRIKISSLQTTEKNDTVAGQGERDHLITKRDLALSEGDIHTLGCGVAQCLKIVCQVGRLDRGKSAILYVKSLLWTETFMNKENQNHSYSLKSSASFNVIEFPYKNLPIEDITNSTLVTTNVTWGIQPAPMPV
human αVβ1, sequence (P05556 21-728 limits assumed): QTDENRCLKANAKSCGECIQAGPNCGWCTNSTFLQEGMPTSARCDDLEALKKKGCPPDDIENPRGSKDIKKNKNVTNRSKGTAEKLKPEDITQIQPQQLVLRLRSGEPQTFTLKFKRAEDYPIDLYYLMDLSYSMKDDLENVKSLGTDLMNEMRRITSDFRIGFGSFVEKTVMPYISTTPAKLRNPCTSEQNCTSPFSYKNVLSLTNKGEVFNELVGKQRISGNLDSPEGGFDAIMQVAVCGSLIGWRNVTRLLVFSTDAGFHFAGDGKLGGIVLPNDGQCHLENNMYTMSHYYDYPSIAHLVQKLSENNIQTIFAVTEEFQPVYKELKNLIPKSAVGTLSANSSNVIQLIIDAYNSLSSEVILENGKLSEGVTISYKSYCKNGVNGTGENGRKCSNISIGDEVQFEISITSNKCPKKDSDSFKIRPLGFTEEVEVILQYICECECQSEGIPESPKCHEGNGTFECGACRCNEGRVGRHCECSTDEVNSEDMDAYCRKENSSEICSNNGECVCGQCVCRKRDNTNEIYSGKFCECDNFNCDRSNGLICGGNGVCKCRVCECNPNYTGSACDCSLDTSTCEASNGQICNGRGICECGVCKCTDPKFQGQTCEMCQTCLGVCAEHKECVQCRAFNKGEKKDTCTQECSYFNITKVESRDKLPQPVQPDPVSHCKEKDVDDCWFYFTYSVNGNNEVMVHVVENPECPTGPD
human αVβ8, sequence (P06756 31-992 limits assumed): as the sequence (P06756 31-992 limits assumed) above
human αVβ8, sequence (P26012 43-684 limits assumed): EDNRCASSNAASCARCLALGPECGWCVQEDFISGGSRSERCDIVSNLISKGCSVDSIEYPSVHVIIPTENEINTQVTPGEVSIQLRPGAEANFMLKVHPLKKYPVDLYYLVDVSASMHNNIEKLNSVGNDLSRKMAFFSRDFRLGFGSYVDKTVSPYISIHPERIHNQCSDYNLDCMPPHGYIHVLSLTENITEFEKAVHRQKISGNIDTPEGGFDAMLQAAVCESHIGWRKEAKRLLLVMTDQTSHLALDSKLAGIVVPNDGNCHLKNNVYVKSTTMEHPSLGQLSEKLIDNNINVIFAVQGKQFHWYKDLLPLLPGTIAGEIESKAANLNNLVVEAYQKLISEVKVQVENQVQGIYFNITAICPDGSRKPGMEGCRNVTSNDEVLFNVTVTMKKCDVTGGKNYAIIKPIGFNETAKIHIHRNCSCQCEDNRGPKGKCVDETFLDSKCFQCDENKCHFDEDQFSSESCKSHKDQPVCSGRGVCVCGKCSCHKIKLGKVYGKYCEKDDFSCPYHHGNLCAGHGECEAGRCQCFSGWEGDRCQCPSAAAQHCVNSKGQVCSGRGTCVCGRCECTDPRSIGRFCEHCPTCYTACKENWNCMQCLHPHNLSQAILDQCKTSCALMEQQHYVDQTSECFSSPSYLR
human αVβ5, sequence (P06756 31-992 limits assumed): as the sequence (P06756 31-992 limits assumed) above
human αVβ5, sequence (P18084 24-719 limits assumed): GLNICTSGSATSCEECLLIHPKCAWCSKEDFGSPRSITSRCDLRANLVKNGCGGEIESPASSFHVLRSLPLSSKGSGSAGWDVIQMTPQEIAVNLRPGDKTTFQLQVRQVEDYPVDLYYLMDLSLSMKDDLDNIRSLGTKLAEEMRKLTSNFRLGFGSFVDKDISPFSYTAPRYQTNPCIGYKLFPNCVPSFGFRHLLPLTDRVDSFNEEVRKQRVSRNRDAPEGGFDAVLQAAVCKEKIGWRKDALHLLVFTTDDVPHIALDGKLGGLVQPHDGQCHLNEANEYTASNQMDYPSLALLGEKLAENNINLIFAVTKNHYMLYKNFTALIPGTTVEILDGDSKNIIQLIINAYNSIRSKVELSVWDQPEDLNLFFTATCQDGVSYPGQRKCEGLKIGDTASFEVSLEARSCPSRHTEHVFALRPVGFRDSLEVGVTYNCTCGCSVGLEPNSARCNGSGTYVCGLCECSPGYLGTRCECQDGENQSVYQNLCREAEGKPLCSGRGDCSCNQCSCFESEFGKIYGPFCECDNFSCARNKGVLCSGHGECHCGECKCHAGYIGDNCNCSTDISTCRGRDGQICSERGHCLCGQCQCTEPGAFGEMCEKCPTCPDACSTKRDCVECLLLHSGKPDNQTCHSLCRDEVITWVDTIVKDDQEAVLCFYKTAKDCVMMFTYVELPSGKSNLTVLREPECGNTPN
human αVβ3, sequence (P06756 31-992 limits assumed): as the sequence (P06756 31-992 limits assumed) above
human αVβ3, sequence (P05106 27-718 limits assumed): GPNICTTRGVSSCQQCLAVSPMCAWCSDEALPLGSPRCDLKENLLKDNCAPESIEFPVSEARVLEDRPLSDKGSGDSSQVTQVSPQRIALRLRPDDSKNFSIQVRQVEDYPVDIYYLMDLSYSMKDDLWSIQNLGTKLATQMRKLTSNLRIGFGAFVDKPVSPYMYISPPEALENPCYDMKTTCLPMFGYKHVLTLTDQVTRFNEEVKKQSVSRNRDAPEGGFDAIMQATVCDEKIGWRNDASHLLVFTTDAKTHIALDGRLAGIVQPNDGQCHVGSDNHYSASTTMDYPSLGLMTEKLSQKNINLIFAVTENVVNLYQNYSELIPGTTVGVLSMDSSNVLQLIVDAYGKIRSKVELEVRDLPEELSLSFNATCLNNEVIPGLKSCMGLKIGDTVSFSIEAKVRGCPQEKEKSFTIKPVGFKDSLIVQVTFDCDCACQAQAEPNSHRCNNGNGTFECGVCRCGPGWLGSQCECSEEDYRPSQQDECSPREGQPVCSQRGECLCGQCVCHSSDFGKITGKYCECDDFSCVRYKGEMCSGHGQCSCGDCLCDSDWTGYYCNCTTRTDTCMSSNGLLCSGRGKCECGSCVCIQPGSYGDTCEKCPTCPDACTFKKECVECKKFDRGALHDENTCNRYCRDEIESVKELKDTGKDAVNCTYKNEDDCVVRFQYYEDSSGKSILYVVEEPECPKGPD
T1 sequence (P06756 31-992 limits assumed): as the sequence (P06756 31-992 limits assumed) above
T1 sequence (P18564 22-707 limits assumed): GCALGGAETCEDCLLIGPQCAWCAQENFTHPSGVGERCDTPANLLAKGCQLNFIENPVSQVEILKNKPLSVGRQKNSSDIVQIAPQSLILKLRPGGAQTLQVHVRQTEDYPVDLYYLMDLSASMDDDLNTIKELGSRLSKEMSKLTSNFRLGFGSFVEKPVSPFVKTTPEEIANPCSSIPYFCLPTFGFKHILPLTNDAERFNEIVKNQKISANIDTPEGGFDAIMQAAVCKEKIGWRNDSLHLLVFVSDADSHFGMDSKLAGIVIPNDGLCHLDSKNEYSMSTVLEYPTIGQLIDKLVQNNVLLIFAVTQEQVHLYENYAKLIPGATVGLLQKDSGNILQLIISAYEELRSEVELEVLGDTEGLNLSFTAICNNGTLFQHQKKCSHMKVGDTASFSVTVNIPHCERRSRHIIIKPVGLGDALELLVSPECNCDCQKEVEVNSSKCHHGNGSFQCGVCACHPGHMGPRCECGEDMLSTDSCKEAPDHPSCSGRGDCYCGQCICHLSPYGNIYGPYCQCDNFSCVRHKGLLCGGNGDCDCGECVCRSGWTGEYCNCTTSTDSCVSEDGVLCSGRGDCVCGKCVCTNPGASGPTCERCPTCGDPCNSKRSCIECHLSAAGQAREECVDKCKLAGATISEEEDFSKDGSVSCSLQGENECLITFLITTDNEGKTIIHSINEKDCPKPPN

| IC50 (human αVβ6) | IC50 (human αVβ8) | IC50 (human αVβ3) | IC50 (human αVβ5) | IC50 (human αVβ1) | Structure (SMILES) |
| --- | --- | --- | --- | --- | --- |
| 1 nM | 115 nM | 2 nM | 0.4 nM | 45 nM | Cc1cc(C)c(S(=O)(=O)N[C@@H](CNC(=O)c2ccn(CCc3ccc4c(n3)NCCC4)n2)C(=O)O)c(C)c1 [Example 112] |
| 0.8 nM | 63 nM | 6.4 nM | 1.1 nM | 46 nM | Cc1cc(C)c(S(=O)(=O)N[C@@H](CNC(=O)c2cn(CCc3ccc4c(n3)NCCC4)nn2)C(=O)O)c(C)c1 [Example 111] |
| 2 nM | 152 nM | 2.1 nM | 902 nM | 126 nM | Cc1cc(C)c(S(=O)(=O)N[C@@H](CNC(=O)c2ncn(CCc3ccc4c(n3)NCCC4)n2)C(=O)O)c(C)c1 [Example 123] |
